Laboratory results taken from US20260250626A1, “LACTOBACILLUS SALIVARIUS STRAINS AND USES THEREOF” (CHEMO RESEARCH, S.L., priority 2022, published 2026).
Values joined by “and” are separate entries in the source; they are usually repeats but may differ in a detail not shown here. Identical values can stand only once. Like-named read-outs stand apart in the source and are kept apart here.

How the values were obtained:
[1] = Recurrent gout trial: gout episodes and intake of gout-related drugs; assay type: in vivo, human; conditions: control group (allopurinol), individual patients 1-15
[2] = Recurrent gout trial: blood biochemical parameters (uric acid, lipids, transaminases); assay type: in vivo, human
[3] = Recurrent gout trial: oxidative stress (OS)-related parameters and NOx in plasma; assay type: in vivo, human
[4] = human, in vivo; cited from earlier work
[5] = test system: L. salivarius MP98; assay: Sensitivity to antibiotics by E-test (MIC); assay type: cell-based, Ligilactobacillus salivarius; design: MIC value: unit not given here
[6] = drug intake recorded through the study
[7] = control group (allopurinol), individual patients 1-15, serum, after finishing the study
[8] = control group, before starting the study, individual patients 1-15
[9] = control group (allopurinol), individual patients 1-15, plasma, after finishing the study
[10] = control group, before starting the study, individual patients 1-15, normalized per mg protein
[11] = control group, before starting the study, individual patients 1-15, plasma concentration (µmol/L)
[12] = MIC of the antibiotic to L. salivarius MP98, E-test

Oc1ncnc2[nH]ncc12 [allopurinol]
Gout episodes (during study period) [1]: 0 (2×) and 1 (8×) and 2 (4×) and 3
Gout episodes (9 previous months) ([1]; 9 months before the study (baseline)): 1 (5×) and 2 (8×) and 0 and 3
Doses Allopurinol [1, 6]: 180 (4×) and 175 (2×) and 174 (2×) and 168 and 178 and 179 (2×) and 172 and 176 and 177
Doses Colchicin [1, 6]: 0 (2×) and 4 (6×) and 8 (3×) and 2 (2×) and 12 and 6
Doses ibuprofen and similar AINS [1, 6]: 0 (2×) and 8 and 12 (2×) and 6 (4×) and 16 and 4 (2×) and 1 and 3 (2×)
GOT (UI/L) [2, 7]: 20.05 UI/L and 22.63 UI/L and 37.84 UI/L and 37.28 UI/L and 33.57 UI/L and 27.60 UI/L and 37.24 UI/L and 21.94 UI/L and 40.68 UI/L and 41.07 UI/L and 39.21 UI/L and 31.82 UI/L and 32.99 UI/L and 38.57 UI/L and 32.42 UI/L
GPT (UI/L) [2, 7]: 19.97 UI/L and 27.46 UI/L and 44.90 UI/L and 27.61 UI/L (2×) and 43.27 UI/L and 53.45 UI/L and 34.73 UI/L and 27.08 UI/L and 59.99 UI/L and 53.87 UI/L and 35.57 UI/L and 39.40 UI/L and 44.47 UI/L and 33.84 UI/L
Total cholesterol [2, 7]: 172.63 mg/dL and 176.04 mg/dL and 206.72 mg/dL and 196.82 mg/dL and 183.24 mg/dL and 194.32 mg/dL and 176.47 mg/dL and 170.51 mg/dL and 224.95 mg/dL and 199.08 mg/dL and 193.84 mg/dL and 181.94 mg/dL and 178.63 mg/dL and 187.14 mg/dL and 183.02 mg/dL
Triglycerides [2, 7]: 157.81 mg/dL and 153.17 mg/dL and 169.90 mg/dL and 158.47 mg/dL and 165.58 mg/dL and 164.25 mg/dL and 162.81 mg/dL and 165.45 mg/dL and 189.72 mg/dL and 171.63 mg/dL and 154.57 mg/dL and 165.16 mg/dL and 163.83 mg/dL and 160.02 mg/dL and 168.91 mg/dL
Uric acid [2, 7]: 7.11 mg/dl and 7.46 mg/dl and 9.68 mg/dl and 8.87 mg/dl and 7.64 mg/dl and 9.61 mg/dl and 8.69 mg/dl and 7.90 mg/dl and 10.92 mg/dl and 10.87 mg/dl and 9.12 mg/dl (2×) and 8.57 mg/dl and 10.49 mg/dl and 9.38 mg/dl
any parameter, T1 against T2 samples ([2]; control group, 100-300 mg/daily for one year): no differences in any parameter
GOT [2, 8]: 20.94 UI/L and 24.52 UI/L and 38.57 UI/L and 36.71 UI/L and 35.83 UI/L and 25.11 UI/L and 35.37 UI/L and 21.62 UI/L and 42.75 UI/L and 40.28 UI/L and 37.01 UI/L and 30.17 UI/L and 34.88 UI/L and 39.64 UI/L and 30.53 UI/L
GPT [2, 8]: 19.32 UI/L and 25.75 UI/L and 47.78 UI/L and 29.19 UI/L and 42.81 UI/L and 55.07 UI/L and 30.64 UI/L and 25.55 UI/L and 54.98 UI/L and 49.91 UI/L and 37.56 UI/L and 30.07 UI/L and 40.39 UI/L and 45.29 UI/L and 30.37 UI/L
Total cholesterol [2, 8]: 170.45 mg/dl and 179.39 mg/dl and 208.16 mg/dl and 195.37 mg/dl (2×) and 188.31 mg/dl and 192.43 mg/dl and 177.63 mg/dl and 169.04 mg/dl and 229.46 mg/dl and 197.18 mg/dl and 184.41 mg/dl and 176.25 mg/dl and 184.30 mg/dl and 185.19 mg/dl
Triglycerides [2, 8]: 152.07 mg/dL and 151.28 mg/dL and 172.29 mg/dL and 155.83 mg/dL and 166.74 mg/dL and 162.41 mg/dL and 168.02 mg/dL and 162.33 mg/dL and 187.99 mg/dL and 172.25 mg/dL and 160.86 mg/dL and 162.25 mg/dL and 167.27 mg/dL and 162.91 mg/dL and 168.28 mg/dL
Uric acid [2, 8]: 7.03 mg/dl and 7.53 mg/dl and 9.97 mg/dl and 8.44 mg/dl (2×) and 7.56 mg/dl and 9.99 mg/dl and 7.81 mg/dl and 10.64 mg/dl and 11.69 mg/dl and 9.20 mg/dl and 8.24 mg/dl and 10.05 mg/dl and 9.92 mg/dl and 9.06 mg/dl
8-isoprostaglandin Fzs [3, 9]: 166.1 pg/mL and 162.9 pg/mL and 205.9 pg/mL and 164.8 pg/mL and 175.0 pg/mL and 192.4 pg/mL and 204.7 pg/mL and 165.2 pg/mL and 205.1 pg/mL and 207.1 pg/mL and 195.9 pg/mL and 164.5 pg/mL and 186.3 pg/mL and 191.9 pg/mL and 175.8 pg/mL
AOPPs [3, 9]: 54.87 µmol/L and 57.96 µmol/L and 66.12 µmol/L and 58.27 µmol/L and 62.35 µmol/L and 64.76 µmol/L and 60.56 µmol/L and 57.71 µmol/L and 65.70 µmol/L and 63.68 µmol/L and 60.94 µmol/L and 59.37 µmol/L and 61.97 µmol/L and 64.14 µmol/L and 59.82 µmol/L
AOPPs (nmol/mg protein) [3, 9]: 0.72 nmol/mg protein and 0.75 nmol/mg protein (2×) and 0.83 nmol/mg protein (2×) and 0.76 nmol/mg protein (2×) and 0.78 nmol/mg protein (2×) and 0.80 nmol/mg protein (2×) and 0.77 nmol/mg protein and 0.82 nmol/mg protein and 0.81 nmol/mg protein (2×)
MDA [3, 9]: 1.78 μmol/L and 1.83 μmol/L and 2.37 μmol/L and 1.84 μmol/L (2×) and 2.14 μmol/L and 2.09 μmol/L and 1.81 μmol/L (2×) and 2.29 μmol/L and 2.22 μmol/L and 2.01 μmol/L and 1.74 μmol/L and 2.27 μmol/L and 2.08 μmol/L
NOx [3, 9]: 21.32 µmol/L and 19.26 µmol/L and 23.87 µmol/L and 22.75 µmol/L and 21.13 µmol/L and 24.97 µmol/L and 24.59 µmol/L and 22.33 µmol/L and 26.43 µmol/L and 28.07 µmol/L and 24.07 µmol/L and 24.81 µmol/L and 25.79 µmol/L and 25.95 µmol/L and 22.68 µmol/L
Nitrate [3, 9]: 16.92 µmol/L and 16.86 µmol/L and 28.79 µmol/L and 19.85 µmol/L and 21.04 µmol/L and 23.87 µmol/L and 22.81 µmol/L and 17.40 µmol/L and 26.73 µmol/L and 27.47 µmol/L and 22.10 µmol/L and 17.49 µmol/L and 21.36 µmol/L and 25.27 µmol/L and 20.31 µmol/L
Nitrite [3, 9]: 1.82 µmol/L and 1.87 µmol/L and 2.29 µmol/L and 1.67 µmol/L and 2.03 µmol/L and 2.24 µmol/L and 2.27 µmol/L and 1.84 µmol/L and 2.02 µmol/L and 2.22 µmol/L and 2.19 µmol/L and 1.77 µmol/L and 2.26 µmol/L and 2.20 µmol/L and 1.88 µmol/L
SH groups [3, 9]: 429.5 µmol/L and 423.6 µmol/L and 448.1 µmol/L and 429.7 µmol/L and 435.4 µmol/L and 430.2 µmol/L and 431.0 µmol/L and 426.3 µmol/L and 451.8 µmol/L and 436.7 µmol/L and 436.1 µmol/L and 433.4 µmol/L and 436.8 µmol/L and 432.7 µmol/L and 431.3 µmol/L
SH groups (nmol/mg protein) [3, 9]: 5.19 nmol/mg protein and 5.21 nmol/mg protein and 5.72 nmol/mg protein and 5.41 nmol/mg protein (2×) and 5.42 nmol/mg protein and 5.36 nmol/mg protein and 5.23 nmol/mg protein and 6.02 nmol/mg protein and 5.59 nmol/mg protein and 5.48 nmol/mg protein and 5.47 nmol/mg protein and 5.43 nmol/mg protein and 5.74 nmol/mg protein and 5.52 nmol/mg protein
TBARM [3, 9]: 22.89 µmol/L and 23.48 µmol/L and 29.92 µmol/L and 27.01 µmol/L and 27.83 µmol/L and 27.59 µmol/L and 29.04 µmol/L and 25.67 µmol/L and 25.91 µmol/L and 28.75 µmol/L and 26.32 µmol/L and 24.81 µmol/L and 27.09 µmol/L and 28.27 µmol/L and 24.86 µmol/L
8-isoprostaglandin F2α [3, 8]: 161.7 pg/mL and 209.0 pg/mL and 162.6 pg/mL and 177.1 pg/mL and 195.2 pg/mL and 207.3 pg/mL and 160.9 pg/mL and 202.4 pg/mL and 207.5 pg/mL and 194.8 pg/mL and 166.1 pg/mL and 184.9 pg/mL and 195.7 pg/mL and 174.4 pg/mL and 162.2 pg/mL
MDA [3, 8]: 1.86 μmol/L and 2.41 μmol/L (2×) and 1.78 μmol/L and 2.02 μmol/L and 1.99 μmol/L and 1.92 μmol/L and 1.79 μmol/L and 2.17 μmol/L and 2.09 μmol/L and 1.83 μmol/L and 2.19 μmol/L and 2.00 μmol/L and 1.87 μmol/L and 1.74 μmol/L
NOx [3, 8]: 19.01 µmol/L and 18.98 µmol/L and 25.67 µmol/L and 21.48 µmol/L and 21.66 µmol/L and 25.18 µmol/L and 24.07 µmol/L and 20.01 µmol/L and 28.23 µmol/L and 27.09 µmol/L and 25.56 µmol/L and 22.29 µmol/L and 26.86 µmol/L and 24.48 µmol/L and 23.16 µmol/L
Nitrate [3, 8]: 16.85 µmol/L and 16.77 µmol/L and 31.12 µmol/L and 19.64 µmol/L and 22.48 µmol/L and 23.99 µmol/L and 20.29 µmol/L and 16.93 µmol/L and 27.46 µmol/L and 28.65 µmol/L and 20.92 µmol/L and 17.03 µmol/L and 22.52 µmol/L and 24.81 µmol/L and 20.02 µmol/L
Nitrite [3, 8]: 1.73 μmol/L and 1.81 μmol/L and 2.41 μmol/L and 1.79 μmol/L and 2.12 μmol/L and 2.11 μmol/L (2×) and 2.06 μmol/L and 1.71 μmol/L and 2.14 μmol/L (2×) and 2.27 μmol/L and 1.84 μmol/L and 2.21 μmol/L and 1.92 μmol/L
TBARM [3, 8]: 22.93 µmol/L and 31.02 µmol/L and 24.76 µmol/L and 26.91 µmol/L and 28.14 µmol/L and 27.31 µmol/L and 24.97 µmol/L and 27.28 µmol/L and 27.99 µmol/L and 27.43 µmol/L and 23.07 µmol/L and 28.11 µmol/L and 28.00 µmol/L and 25.79 µmol/L and 23.16 µmol/L
AOPPs [3, 10]: 0.74 nmol/mg protein and 0.83 nmol/mg protein and 0.75 nmol/mg protein (2×) and 0.78 nmol/mg protein and 0.81 nmol/mg protein (2×) and 0.77 nmol/mg protein (2×) and 0.73 nmol/mg protein (2×) and 0.84 nmol/mg protein and 0.82 nmol/mg protein and 0.79 nmol/mg protein and 0.80 nmol/mg protein
SH groups [3, 10]: 5.23 nmol/mg protein and 5.84 nmol/mg protein and 5.37 nmol/mg protein and 5.44 nmol/mg protein and 5.45 nmol/mg protein and 5.39 nmol/mg protein and 5.11 nmol/mg protein and 6.10 nmol/mg protein and 5.54 nmol/mg protein and 5.59 nmol/mg protein and 5.42 nmol/mg protein and 5.48 nmol/mg protein and 5.79 nmol/mg protein and 5.51 nmol/mg protein and 5.14 nmol/mg protein
AOPPs [3, 11]: 57.87 µmol/L and 65.77 µmol/L and 59.02 µmol/L and 62.29 µmol/L and 64.83 µmol/L and 60.36 µmol/L and 58.95 µmol/L and 65.81 µmol/L and 63.52 µmol/L and 61.07 µmol/L and 59.50 µmol/L and 61.92 µmol/L and 64.34 µmol/L and 59.71 µmol/L and 55.91 µmol/L
SH groups [3, 11]: 425.7 μmol/L and 442.0 μmol/L and 427.9 μmol/L and 441.5 μmol/L and 432.7 μmol/L (2×) and 433.9 μmol/L and 425.9 μmol/L and 448.3 μmol/L and 434.9 μmol/L (2×) and 438.4 μmol/L and 435.1 μmol/L and 432.2 μmol/L and 426.6 μmol/L
patients in gout therapy achieving serum urate levels <6 mg/dl (<0.35 mmol/L) [4]: 20-40%

penicillin
MIC value [5]: 0.25

NC[C@H]1O[C@H](O[C@H]2[C@H](O)[C@@H](O[C@H]3O[C@H](CO)[C@@H](O)[C@H](N)[C@H]3O)[C@H](N)C[C@@H]2N)[C@H](O)[C@@H](O)[C@@H]1O [KAN, kanamycin]
MIC ([5]; Ligilactobacillus salivarius, MIC of the antibiotic to L. salivarius MP98): 128 µg/mL

virginiamycin
MIC value [5, 12]: 0.25

gentamycin
MIC value [5, 12]: 2

Cc1nc(-c2ccc(OCC(C)C)c(C#N)c2)sc1C(=O)O [febuxostat]
patients in gout therapy achieving serum urate levels <6 mg/dl (<0.35 mmol/L) [4]: 45-67%
